Results reported in PubChem BioAssay (NCI).
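Tested at 5 concentrations; 48 h exposure; 96-well plates; endpoints linearly interpolated, else capped at highest concentration. GI50 marks 50% less growth. TGI: total growth inhibition.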

How the values were obtained:
Test in all cases: NCI tumour cell line growth inhibition, 48 h
SK-MEL-2 melanoma = system: SK-MEL-2 melanoma
BT-549 breast = system: BT-549 breast
RXF 393 renal = system: RXF 393 renal
SR leukemia = system: SR leukemia
HT29 colon = system: HT29 colon
HOP-62 NSCLC = system: HOP-62 NSCLC
HS 578T breast = system: HS 578T breast
NCI/ADR-RES ovarian = system: NCI/ADR-RES ovarian
UACC-62 melanoma = system: UACC-62 melanoma
OVCAR-8 ovarian = system: OVCAR-8 ovarian
K-562 leukemia = system: K-562 leukemia
HCC-2998 colon = system: HCC-2998 colon
ACHN renal = system: ACHN renal
A549 NSCLC = system: A549 NSCLC
HL-60(TB) leukemia = system: HL-60(TB) leukemia
MOLT-4 leukemia = system: MOLT-4 leukemia
SNB-19 CNS = system: SNB-19 CNS
NCI-H23 lung = system: NCI-H23 lung
OVCAR-4 ovarian = system: OVCAR-4 ovarian
SF-539 CNS = system: SF-539 CNS
SNB-75 CNS = system: SNB-75 CNS
MCF7 breast = system: MCF7 breast
RPMI-8226 leukemia = system: RPMI-8226 leukemia
SK-MEL-28 melanoma = system: SK-MEL-28 melanoma
DU-145 prostate = system: DU-145 prostate
HOP-92 NSCLC = system: HOP-92 NSCLC
NCI-H226 lung = system: NCI-H226 lung
786-0 renal = system: 786-0 renal
SK-OV-3 ovarian = system: SK-OV-3 ovarian
OVCAR-5 ovarian = system: OVCAR-5 ovarian
UACC-257 melanoma = system: UACC-257 melanoma
EKVX NSCLC = system: EKVX NSCLC
M14 melanoma = system: M14 melanoma
TK-10 renal = system: TK-10 renal
SW-620 colon = system: SW-620 colon
SK-MEL-5 melanoma = system: SK-MEL-5 melanoma
IGROV1 ovarian = system: IGROV1 ovarian
MDA-MB-435 = system: MDA-MB-435
LOX IMVI melanoma = system: LOX IMVI melanoma
MDA-MB-231 breast = system: MDA-MB-231 breast
SF-295 CNS = system: SF-295 CNS
HCT-15 colon = system: HCT-15 colon
PC-3 prostate = system: PC-3 prostate
MALME-3M melanoma = system: MALME-3M melanoma
KM12 colon = system: KM12 colon
SF-268 CNS = system: SF-268 CNS
OVCAR-3 ovarian = system: OVCAR-3 ovarian
HCT-116 colon = system: HCT-116 colon
SN12C renal = system: SN12C renal
CAKI-1 renal = system: CAKI-1 renal
T-47D breast = system: T-47D breast
NCI-H460 lung = system: NCI-H460 lung
NCI-H522 lung = system: NCI-H522 lung
COLO 205 colon = system: COLO 205 colon
A498 renal = system: A498 renal
CCRF-CEM leukemia = system: CCRF-CEM leukemia
UO-31 renal = system: UO-31 renal
U251 CNS = system: U251 CNS

`Cc1c(C(=O)CCl)c(=O)n(-c2ccccc2)n1C` showed a GI50 (SK-MEL-2 melanoma) of 3.99 µM, a TGI (SK-MEL-2 melanoma) of 14.5 µM and a GI50 (BT-549 breast) of 2460 nM. For the same molecule, the TGI (BT-549 breast) was 12.8 µM, the GI50 (RXF 393 renal) was 1760 nM and the TGI (RXF 393 renal) was 6.11 µM. The GI50 (SR leukemia) was 2280 nM, the TGI (SR leukemia) was 13.5 µM and the GI50 (HT29 colon) was 3.25 µM. It also gave a TGI (HT29 colon) of 12.9 µM, a GI50 (HOP-62 NSCLC) of 11.5 µM and a TGI (HOP-62 NSCLC) of 27.3 µM. The GI50 (HS 578T breast) was 922 nM, the TGI (HS 578T breast) was 5.52 µM and the GI50 (NCI/ADR-RES ovarian) was 5.53 µM. The TGI (NCI/ADR-RES ovarian) was 27.3 µM, the GI50 (UACC-62 melanoma) was 4.78 µM and the TGI (UACC-62 melanoma) was 18.9 µM. It also gave a GI50 (OVCAR-8 ovarian) of 3.85 µM, a TGI (OVCAR-8 ovarian) of 28.3 µM and a GI50 (K-562 leukemia) of 2760 nM. The TGI (K-562 leukemia) was 17.3 µM, the GI50 (HCC-2998 colon) was 12.9 µM and the TGI (HCC-2998 colon) was 26.6 µM. For the same molecule, the GI50 (ACHN renal) was 4.54 µM, the TGI (ACHN renal) was 16.6 µM and the GI50 (A549 NSCLC) was 11.6 µM. It also gave a TGI (A549 NSCLC) of 27.4 µM, a GI50 (HL-60(TB) leukemia) of 3.8 µM and a TGI (HL-60(TB) leukemia) of 13.5 µM. It also gave a GI50 (MOLT-4 leukemia) of 2480 nM, a TGI (MOLT-4 leukemia) of 11.5 µM and a GI50 (SNB-19 CNS) of 17.1 µM. It also gave a TGI (SNB-19 CNS) of 51.1 µM, a GI50 (NCI-H23 lung) of 5.17 µM and a TGI (NCI-H23 lung) of 21.1 µM. For the same molecule, the GI50 (OVCAR-4 ovarian) was 3.68 µM, the TGI (OVCAR-4 ovarian) was 14.9 µM and the GI50 (SF-539 CNS) was 7.19 µM. It also gave a TGI (SF-539 CNS) of 22.9 µM, a GI50 (SNB-75 CNS) of 10.9 µM and a TGI (SNB-75 CNS) of 29.5 µM. The GI50 (MCF7 breast) was 2730 nM, the TGI (MCF7 breast) was 11.6 µM and the GI50 (RPMI-8226 leukemia) was 1070 nM. For the same molecule, the TGI (RPMI-8226 leukemia) was 4.62 µM, the GI50 (SK-MEL-28 melanoma) was 3.27 µM and the TGI (SK-MEL-28 melanoma) was 11.6 µM. The GI50 (DU-145 prostate) was 2220 nM, the TGI (DU-145 prostate) was 5.36 µM and the GI50 (HOP-92 NSCLC) was 1560 nM. For the same molecule, the TGI (HOP-92 NSCLC) was 13.2 µM, the GI50 (NCI-H226 lung) was 13.3 µM and the TGI (NCI-H226 lung) was 33.2 µM. For the same molecule, the GI50 (786-0 renal) was 10.7 µM, the TGI (786-0 renal) was 24.3 µM and the GI50 (SK-OV-3 ovarian) was 16.4 µM. The TGI (SK-OV-3 ovarian) was 74.5 µM, the GI50 (OVCAR-5 ovarian) was 13.3 µM and the TGI (OVCAR-5 ovarian) was 27.1 µM. It also gave a GI50 (UACC-257 melanoma) of 2580 nM, a TGI (UACC-257 melanoma) of 16.3 µM and a GI50 (EKVX NSCLC) of 12.4 µM. For the same molecule, the TGI (EKVX NSCLC) was 29.1 µM, the GI50 (M14 melanoma) was 3.13 µM and the TGI (M14 melanoma) was 15.4 µM. For the same molecule, the GI50 (TK-10 renal) was 3.81 µM, the TGI (TK-10 renal) was 15.2 µM and the GI50 (SW-620 colon) was 2700 nM. It also gave a TGI (SW-620 colon) of 8.54 µM, a GI50 (SK-MEL-5 melanoma) of 3.66 µM and a TGI (SK-MEL-5 melanoma) of 14.5 µM. It also gave a GI50 (IGROV1 ovarian) of 2190 nM, a TGI (IGROV1 ovarian) of 6.92 µM and a GI50 (MDA-MB-435) of 2570 nM. For the same molecule, the TGI (MDA-MB-435) was 11.5 µM, the GI50 (LOX IMVI melanoma) was 3.27 µM and the TGI (LOX IMVI melanoma) was 14.3 µM. It also gave a GI50 (MDA-MB-231 breast) of 11.2 µM, a TGI (MDA-MB-231 breast) of 27.9 µM and a GI50 (SF-295 CNS) of 10.9 µM. It also gave a TGI (SF-295 CNS) of 44.3 µM, a GI50 (HCT-15 colon) of 3.59 µM and a TGI (HCT-15 colon) of 15.5 µM. The GI50 (PC-3 prostate) was 11.4 µM, the TGI (PC-3 prostate) was 37.5 µM and the GI50 (MALME-3M melanoma) was 1310 nM. It also gave a TGI (MALME-3M melanoma) of 6.98 µM, a GI50 (KM12 colon) of 10.4 µM and a TGI (KM12 colon) of 22.6 µM. For the same molecule, the GI50 (SF-268 CNS) was 5.47 µM, the TGI (SF-268 CNS) was 19.7 µM and the GI50 (OVCAR-3 ovarian) was 1980 nM. For the same molecule, the TGI (OVCAR-3 ovarian) was 4.94 µM, the GI50 (HCT-116 colon) was 2860 nM and the TGI (HCT-116 colon) was 10.4 µM. The GI50 (SN12C renal) was 5.93 µM, the TGI (SN12C renal) was 28.6 µM and the GI50 (CAKI-1 renal) was 3.2 µM. For the same molecule, the TGI (CAKI-1 renal) was 12 µM, the GI50 (T-47D breast) was 2430 nM and the TGI (T-47D breast) was 17.6 µM. It also gave a GI50 (NCI-H460 lung) of 7.94 µM, a TGI (NCI-H460 lung) of 32.1 µM and a GI50 (NCI-H522 lung) of 1460 nM. For the same molecule, the TGI (NCI-H522 lung) was 3.23 µM, the GI50 (COLO 205 colon) was 3.28 µM and the TGI (COLO 205 colon) was 11.2 µM. For the same molecule, the GI50 (A498 renal) was 1240 nM, the TGI (A498 renal) was 11 µM and the GI50 (CCRF-CEM leukemia) was 1010 nM. It also gave a TGI (CCRF-CEM leukemia) of 4.82 µM, a GI50 (UO-31 renal) of 3.24 µM and a TGI (UO-31 renal) of 18.5 µM. For the same molecule, the GI50 (U251 CNS) was 11.4 µM and the TGI (U251 CNS) was 26.2 µM.
